Experimental data as given in the supplement of paper PMC10307832.

Columns and labels:
Test in all cases: relative viability (nuclei count vs DMSO), 5 days (fraction); higher = more cells survive
AGI-6780 + Phenformin = compound: O=C(Nc1cccc(C(F)(F)F)c1)Nc1cc(S(=O)(=O)NC2CC2)ccc1-c1ccsc1 [AGI-6780] + N=C(N)NC(=N)NCCc1ccccc1 [Phenformin] (partner 250 µM)
In short: (§1)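 Lung cancer cell lines were seeded in 1536-well plates and dosed by pin tool the next day, with either a single drug or a fixed anchor-drug dose combined with five library-drug doses (not always all listed) spaced in √10 steps. Five days later, one step fixed the cells and stained their nuclei (final 0.05% Triton X-100, 1% formaldehyde, 1 ug/ml Hoechst), and nuclei were counted on 4× images. Relative viability is the nuclei count in treated wells divided by the count in vehicle wells, and each value is the median of duplicate plates.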

AGI-6780 + Dasatinib = compound: O=C(Nc1cccc(C(F)(F)F)c1)Nc1cc(S(=O)(=O)NC2CC2)ccc1-c1ccsc1 [AGI-6780] + Cc1nc(Nc2ncc(C(=O)Nc3c(C)cccc3Cl)s2)cc(N2CCN(CCO)CC2)n1 [Dasatinib] (partner 0.075 µM)
In short: as §1

AGI-6780 + Tozasertib = compound: O=C(Nc1cccc(C(F)(F)F)c1)Nc1cc(S(=O)(=O)NC2CC2)ccc1-c1ccsc1 [AGI-6780] + Cc1cc(Nc2cc(N3CCN(C)CC3)nc(Sc3ccc(NC(=O)C4CC4)cc3)n2)n[nH]1 [Tozasertib] (partner 0.1 µM)
In short: as §1

AGI-6780 + Foretinib = compound: O=C(Nc1cccc(C(F)(F)F)c1)Nc1cc(S(=O)(=O)NC2CC2)ccc1-c1ccsc1 [AGI-6780] + COc1cc2c(Oc3ccc(NC(=O)C4(C(=O)Nc5ccc(F)cc5)CC4)cc3F)ccnc2cc1OCCCN1CCOCC1 [Foretinib] (partner 0.25 µM)
In short: as §1

AGI-6780 + OSI-027 = compound: O=C(Nc1cccc(C(F)(F)F)c1)Nc1cc(S(=O)(=O)NC2CC2)ccc1-c1ccsc1 [AGI-6780] + COc1cccc2cc(-c3nc([C@H]4CC[C@H](C(=O)O)CC4)n4ncnc(N)c34)[nH]c12 [OSI-027] (partner 0.5 µM)
In short: as §1

AGI-6780 + Luminespib = compound: O=C(Nc1cccc(C(F)(F)F)c1)Nc1cc(S(=O)(=O)NC2CC2)ccc1-c1ccsc1 [AGI-6780] + CCNC(=O)c1noc(-c2cc(C(C)C)c(O)cc2O)c1-c1ccc(CN2CCOCC2)cc1 [Luminespib] (partner 0.01 µM)
In short: as §1

AGI-6780 = compound: O=C(Nc1cccc(C(F)(F)F)c1)Nc1cc(S(=O)(=O)NC2CC2)ccc1-c1ccsc1 [AGI-6780]
In short: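 Five library-drug doses, separated by factors of √10, were pinned into 1536-well plates holding lung cancer cell lines after an overnight stay at 37 °C. Cells were fixed, permeabilised and Hoechst-stained in one step after 5 days without medium change, then imaged at 4×. Viability compares treated-well with vehicle-well nuclei, counted in MetaXpress, as a median across plates. Passing plates had control CV below 25% and at least one doubling.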

AGI-6780 + Pemetrexed = compound: O=C(Nc1cccc(C(F)(F)F)c1)Nc1cc(S(=O)(=O)NC2CC2)ccc1-c1ccsc1 [AGI-6780] + Nc1nc2[nH]cc(CCc3ccc(C(=O)N[C@@H](CCC(=O)O)C(=O)O)cc3)c2c(=O)[nH]1 [Pemetrexed] (partner 0.2 µM)
In short: as §1

AGI-6780 + Vorinostat = compound: O=C(Nc1cccc(C(F)(F)F)c1)Nc1cc(S(=O)(=O)NC2CC2)ccc1-c1ccsc1 [AGI-6780] + O=C(CCCCCCC(=O)Nc1ccccc1)NO [Vorinostat] (partner 1 µM)
In short: as §1

AGI-6780 + Olaparib = compound: O=C(Nc1cccc(C(F)(F)F)c1)Nc1cc(S(=O)(=O)NC2CC2)ccc1-c1ccsc1 [AGI-6780] + O=C(c1cc(Cc2n[nH]c(=O)c3ccccc23)ccc1F)N1CCN(C(=O)C2CC2)CC1 [Olaparib] (partner 8 µM)
In short: as §1

AGI-6780 + Palbociclib = compound: O=C(Nc1cccc(C(F)(F)F)c1)Nc1cc(S(=O)(=O)NC2CC2)ccc1-c1ccsc1 [AGI-6780] + CC(=O)c1c(C)c2cnc(Nc3ccc(N4CCNCC4)cn3)nc2n(C2CCCC2)c1=O [Palbociclib] (partner 0.5 µM)
In short: as §1

AGI-6780 + AZD7762 = compound: O=C(Nc1cccc(C(F)(F)F)c1)Nc1cc(S(=O)(=O)NC2CC2)ccc1-c1ccsc1 [AGI-6780] + NC(=O)Nc1cc(-c2cccc(F)c2)sc1C(=O)N[C@H]1CCCNC1 [AZD7762] (partner 0.2 µM)
In short: as §1

AGI-6780 + Trametinib = compound: O=C(Nc1cccc(C(F)(F)F)c1)Nc1cc(S(=O)(=O)NC2CC2)ccc1-c1ccsc1 [AGI-6780] + CC(=O)Nc1cccc(-n2c(=O)n(C3CC3)c(=O)c3c(Nc4ccc(I)cc4F)n(C)c(=O)c(C)c32)c1 [Trametinib] (partner 0.02 µM)
In short: as §1

AGI-6780 + Decitabine = compound: O=C(Nc1cccc(C(F)(F)F)c1)Nc1cc(S(=O)(=O)NC2CC2)ccc1-c1ccsc1 [AGI-6780] + Nc1ncn([C@H]2C[C@H](O)[C@@H](CO)O2)c(=O)n1 [Decitabine] (partner 2 µM)
In short: as §1

In the case of NCI-H1623, the relative viability (AGI-6780 + Phenformin; first compound 0.08 µM) was 0.561, the relative viability (AGI-6780 + Phenformin; first compound 0.253 µM) was 0.604 and the relative viability (AGI-6780 + Phenformin; first compound 0.8 µM) was 0.609. For the same cell line, the relative viability (AGI-6780 + Phenformin; first compound 2.53 µM) was 0.508, the relative viability (AGI-6780 + Phenformin; first compound 8 µM) was 0.518 and the relative viability (AGI-6780 + Dasatinib; first compound 0.08 µM) was 0.484. For the same cell line, the relative viability (AGI-6780 + Dasatinib; first compound 0.253 µM) was 0.553, the relative viability (AGI-6780 + Dasatinib; first compound 0.8 µM) was 0.619 and the relative viability (AGI-6780 + Dasatinib; first compound 2.53 µM) was 0.477. The relative viability (AGI-6780 + Dasatinib; first compound 8 µM) was 0.489, the relative viability (AGI-6780 + Tozasertib; first compound 0.08 µM) was 0.47 and the relative viability (AGI-6780 + Tozasertib; first compound 0.253 µM) was 0.519. For the same cell line, the relative viability (AGI-6780 + Tozasertib; first compound 0.8 µM) was 0.474, the relative viability (AGI-6780 + Tozasertib; first compound 2.53 µM) was 0.391 and the relative viability (AGI-6780 + Tozasertib; first compound 8 µM) was 0.409. The relative viability (AGI-6780 + Foretinib; first compound 0.08 µM) was 0.789, the relative viability (AGI-6780 + Foretinib; first compound 0.253 µM) was 0.856 and the relative viability (AGI-6780 + Foretinib; first compound 0.8 µM) was 0.976. It also gave a relative viability (AGI-6780 + Foretinib; first compound 2.53 µM) of 0.721, a relative viability (AGI-6780 + Foretinib; first compound 8 µM) of 0.887 and a relative viability (AGI-6780 + OSI-027; first compound 0.08 µM) of 0.537. The relative viability (AGI-6780 + OSI-027; first compound 0.253 µM) was 0.453, the relative viability (AGI-6780 + OSI-027; first compound 0.8 µM) was 0.454 and the relative viability (AGI-6780 + OSI-027; first compound 2.53 µM) was 0.374. The relative viability (AGI-6780 + OSI-027; first compound 8 µM) was 0.396, the relative viability (AGI-6780 + Luminespib; first compound 0.08 µM) was 0.489 and the relative viability (AGI-6780 + Luminespib; first compound 0.253 µM) was 0.483. It also gave a relative viability (AGI-6780 + Luminespib; first compound 0.8 µM) of 0.575, a relative viability (AGI-6780 + Luminespib; first compound 2.53 µM) of 0.381 and a relative viability (AGI-6780 + Luminespib; first compound 8 µM) of 0.463. For the same cell line, the relative viability (AGI-6780; 0.08 µM) was 0.967, the relative viability (AGI-6780; 0.253 µM) was 0.953 and the relative viability (AGI-6780; 0.8 µM) was 0.977. The relative viability (AGI-6780; 2.53 µM) was 0.681 and the relative viability (AGI-6780; 8 µM) was 0.949.
SW 900 was tested, and the relative viability (AGI-6780 + Phenformin; first compound 0.08 µM) was 0.547, the relative viability (AGI-6780 + Phenformin; first compound 0.253 µM) was 0.737 and the relative viability (AGI-6780 + Phenformin; first compound 0.8 µM) was 0.673. It also gave a relative viability (AGI-6780 + Phenformin; first compound 2.53 µM) of 0.597, a relative viability (AGI-6780 + Phenformin; first compound 8 µM) of 0.809 and a relative viability (AGI-6780 + Pemetrexed; first compound 0.08 µM) of 0.461. It also gave a relative viability (AGI-6780 + Pemetrexed; first compound 0.253 µM) of 0.484, a relative viability (AGI-6780 + Pemetrexed; first compound 0.8 µM) of 0.457 and a relative viability (AGI-6780 + Pemetrexed; first compound 2.53 µM) of 0.524. For the same cell line, the relative viability (AGI-6780 + Pemetrexed; first compound 8 µM) was 0.469, the relative viability (AGI-6780 + Dasatinib; first compound 0.08 µM) was 0.542 and the relative viability (AGI-6780 + Dasatinib; first compound 0.253 µM) was 0.675. The relative viability (AGI-6780 + Dasatinib; first compound 0.8 µM) was 0.555, the relative viability (AGI-6780 + Dasatinib; first compound 2.53 µM) was 0.587 and the relative viability (AGI-6780 + Dasatinib; first compound 8 µM) was 0.571. The relative viability (AGI-6780 + Tozasertib; first compound 0.08 µM) was 0.526, the relative viability (AGI-6780 + Tozasertib; first compound 0.253 µM) was 0.52 and the relative viability (AGI-6780 + Tozasertib; first compound 0.8 µM) was 0.644. The relative viability (AGI-6780 + Tozasertib; first compound 2.53 µM) was 0.473, the relative viability (AGI-6780 + Tozasertib; first compound 8 µM) was 0.512 and the relative viability (AGI-6780 + Vorinostat; first compound 0.08 µM) was 0.485. It also gave a relative viability (AGI-6780 + Vorinostat; first compound 0.253 µM) of 0.484, a relative viability (AGI-6780 + Vorinostat; first compound 0.8 µM) of 0.707 and a relative viability (AGI-6780 + Vorinostat; first compound 2.53 µM) of 0.548. It also gave a relative viability (AGI-6780 + Vorinostat; first compound 8 µM) of 0.586, a relative viability (AGI-6780 + Olaparib; first compound 0.08 µM) of 0.741 and a relative viability (AGI-6780 + Olaparib; first compound 0.253 µM) of 0.826. The relative viability (AGI-6780 + Olaparib; first compound 0.8 µM) was 0.923, the relative viability (AGI-6780 + Olaparib; first compound 2.53 µM) was 0.878 and the relative viability (AGI-6780 + Olaparib; first compound 8 µM) was 0.803. For the same cell line, the relative viability (AGI-6780 + Foretinib; first compound 0.08 µM) was 0.953, the relative viability (AGI-6780 + Foretinib; first compound 0.253 µM) was 0.763 and the relative viability (AGI-6780 + Foretinib; first compound 0.8 µM) was 1.03. For the same cell line, the relative viability (AGI-6780 + Foretinib; first compound 2.53 µM) was 0.81, the relative viability (AGI-6780 + Foretinib; first compound 8 µM) was 0.917 and the relative viability (AGI-6780 + Palbociclib; first compound 0.08 µM) was 0.629. The relative viability (AGI-6780 + Palbociclib; first compound 0.253 µM) was 0.527, the relative viability (AGI-6780 + Palbociclib; first compound 0.8 µM) was 0.496 and the relative viability (AGI-6780 + Palbociclib; first compound 2.53 µM) was 0.566. For the same cell line, the relative viability (AGI-6780 + Palbociclib; first compound 8 µM) was 0.552, the relative viability (AGI-6780 + OSI-027; first compound 0.08 µM) was 0.649 and the relative viability (AGI-6780 + OSI-027; first compound 0.253 µM) was 0.684. It also gave a relative viability (AGI-6780 + OSI-027; first compound 0.8 µM) of 0.811, a relative viability (AGI-6780 + OSI-027; first compound 2.53 µM) of 0.415 and a relative viability (AGI-6780 + OSI-027; first compound 8 µM) of 0.741. It also gave a relative viability (AGI-6780 + Luminespib; first compound 0.08 µM) of 0.167, a relative viability (AGI-6780 + Luminespib; first compound 0.253 µM) of 0.17 and a relative viability (AGI-6780 + Luminespib; first compound 0.8 µM) of 0.163. The relative viability (AGI-6780 + Luminespib; first compound 2.53 µM) was 0.185, the relative viability (AGI-6780 + Luminespib; first compound 8 µM) was 0.176 and the relative viability (AGI-6780 + AZD7762; first compound 0.08 µM) was 0.657. The relative viability (AGI-6780 + AZD7762; first compound 0.253 µM) was 0.676, the relative viability (AGI-6780 + AZD7762; first compound 0.8 µM) was 0.811 and the relative viability (AGI-6780 + AZD7762; first compound 2.53 µM) was 0.557. The relative viability (AGI-6780 + AZD7762; first compound 8 µM) was 0.634, the relative viability (AGI-6780 + Trametinib; first compound 0.08 µM) was 1.01 and the relative viability (AGI-6780 + Trametinib; first compound 0.253 µM) was 0.832. For the same cell line, the relative viability (AGI-6780 + Trametinib; first compound 0.8 µM) was 0.915, the relative viability (AGI-6780 + Trametinib; first compound 2.53 µM) was 0.688 and the relative viability (AGI-6780 + Trametinib; first compound 8 µM) was 1.18. For the same cell line, the relative viability (AGI-6780 + Decitabine; first compound 0.08 µM) was 0.454, the relative viability (AGI-6780 + Decitabine; first compound 0.253 µM) was 0.454 and the relative viability (AGI-6780 + Decitabine; first compound 0.8 µM) was 0.386. The relative viability (AGI-6780 + Decitabine; first compound 2.53 µM) was 0.413, the relative viability (AGI-6780 + Decitabine; first compound 8 µM) was 0.445 and the relative viability (AGI-6780; 0.08 µM) was 0.858. For the same cell line, the relative viability (AGI-6780; 0.253 µM) was 0.868, the relative viability (AGI-6780; 0.8 µM) was 1.08 and the relative viability (AGI-6780; 2.53 µM) was 0.901. For the same cell line, the relative viability (AGI-6780; 8 µM) was 0.935.
